Source: US8492362B1, “5-(E)-Bromovinyl uracil analogues and related pyrimidine nucleosides as anti-varicella zoster virus agents and methods of use” (priority 2011, dated 2013)
pEC50: −log10 of the molar value. Like-named read-outs stand apart in the source and are kept apart here.

Legend:
VZV = details: Oliver et al., 2008; cited from earlier work
[1] = 3 mg/mL in drinking water
VZV-BAC-Luc [2] = assay type: in vivo, Varicella-zoster virus; details: 3 mg/mL in drinking water
VZV-BAC-Luc [3] = details: 36 mg/kg/day subcutaneously from osmotic pumps; cited from earlier work
[4] = herpes zoster patients, 125 mg/day; cited from earlier work
VZV-BAC-Luc [5] = assay type: cell-based, Varicella-zoster virus; details: HFF at 48 hpi, read-out: EC50 in HFF, prodrug study
VZV-BAC-Luc [6] = test: VZV-BAC-Luc dose-response in human skin organ culture (SOC); details: read-out: EC50 in skin organ culture (SOC), skin explants, Day 6 (6 dpi)
[7] = tested on: human foreskin fibroblasts (HFFs); test: Neutral red dye uptake cytotoxicity assay in HFFs; assay type: cell-based; details: 35 nM
Experimental: The neutral red (NR) cytotoxicity assay was performed as described previously (Rowe et al.) and is based on the method of (Babich et al., 2002).
To determine the toxicity of L-BHDU in culture, a neutral red dye uptake assay was performed. The amount of dye absorbed is directly proportional to cell number and membrane integrity (Repetto et al., 2008). Primary human foreskin fibroblasts (HFFs) were treated with either 35 nM staurosporine to induce apoptosis, DMSO diluent alone, or 0.1 to 200 μM L-BHDU, refreshed daily. The uptake of neutral red dye was evaluated at 0, 24, 48, and 72 h post treatment. Absorbance values from 6 replicates at each dose were averaged and plotted against treatment time (FIG. 1A). […] In the cultures treated with 200 μM L-BHDU or DMSO at an equivalent diluent concentration, cell viability declined between 48-72 h. […] This substantiates previous reports that L-BHDU caused no cell growth arrest up to 200 μM in HEL 299 cells (human embryonic lung) (Li et al., 2000).

CC(C)[C@H](N)C(=O)OCCOCn1cnc2c(=O)[nH]c(N)nc21 [valaciclovir, reference compound]
effect on VZV replication in SCID-Hu mice (VZV): little to no effect
loss of body weight [1]: > 20%
antiviral effect in SCID-Hu mice (VZV-BAC-Luc [2]): no antiviral effect
average VZV growth rate (VZV-BAC-Luc [2]; n=5): 0.62±0.05 log10 photons/s/day
antiviral effect in SCID-Hu mice (VZV-BAC-Luc [2]; listed as VACV): not effective

O=C(O)CP(=O)(O)O [phosphonoacetic acid (PAA), phosphonoacetic acid]
effect on VZV growth in SCID-Hu model (Rowe et al.) (VZV-BAC-Luc [3]): significantly reduced VZV growth

O=c1[nH]c(=O)n([C@H]2C[C@H](O)[C@@H](CO)O2)cc1/C=C/Br [brivudin, (E)-5-(2-bromovinyl)-2′-deoxyuridine]
Cmax (plasma) [4]: 1700 ng/mL

CC(C)C(N)C(=O)OCC1OCC(n2cc(C=CBr)c(=O)[nH]c2=O)O1 (stereo not shown) [valyl derivative]
pEC50 (VZV-BAC-Luc [5]): 7.42
pEC50 (VZV-BAC-Luc [6]): 7.30

CN[C@@H]1C[C@H]2O[C@@](C)([C@@H]1OC)n1c3ccccc3c3c4c(c5c6ccccc6n2c5c31)C(=O)NC4 [staurosporine, reference compound]
cell viability, positive control for cell death [7]: no viable cells were detected
